Reference: patent publication US10780057B2, “Casein-based silica dual drug-loading composite microcapsule and preparation method therefor” (SHAANXI UNIVERSITY OF SCIENCE & TECHNOLOGY, priority 2016, dated 2020)

What was measured:
[1] = Drug loading efficiency of casein-based silica dual drug-loaded composite microcapsule; type: physicochemical; details: casein-based SiO2 dual-loaded microcapsules; drug A ibuprofen on outer wall of capsule, drug B aspirin in core of capsule
Description: (§1) The samples used in Table 1 were the casein-based SiO2 dual-loaded microcapsules obtained by loading the drug A-buprofen on the outer wall of the capsule and the drug B aspirin in the core of the capsule.

[2] = Cumulative drug release from casein-based silica dual drug-loaded composite microcapsule; type: physicochemical; details: after 40 h; casein-based SiO2 dual-loaded microcapsules; drug A ibuprofen on outer wall of capsule, drug B aspirin in core of capsule
Description: as §1

Row | Structure (SMILES) | Drug loading efficiency (%) [1] [%] | 40 h cumulative release rate (%) [2] [%]
1 | CC(C)Cc1ccc(C(C)C(=O)O)cc1 (stereo not shown) [Drug A: ibuprofen, ibuprofen] | 69 | 88
2 | CC(=O)Oc1ccccc1C(=O)O [Drug B: aspirin, aspirin] | 86 | 60
